Here are results for 21 molecules from patent publication US20240415819A1, “MACROCYCLIC COMPOUNDS AS PROTEASOME SUBUNIT BETA TYPE-5 INHIBITORS” (Lead Discovery Center GmbH, priority 2021, published 2024).

In one experiment the test system is HT-29 cells. Nature of the experiment: CellTiter-Glo luminescent cell viability assay with HT-29 cells (72h incubation). The experiment is classed as cell-based, human. As to conditions: Homo sapiens, HT-29, HT29 cells, read-out: CTG HT29. In short, it runs like this: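 Viability read as CellTiter-Glo luminescence after 72 h compound exposure, with 10 μM staurosporine and DMSO as control wells. Seeding 400 cells per well, compound added 24 h post-plating; IC50 from curve fitting.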

In experiment [1] the target is T1, β5 subunit of the human immunoproteasome (IPS) (Homo sapiens, UniProt P28062).
T1 construct: purchased Boston Biochem E-370
Nature of the experiment: β5 inhibition assay, human immunoproteasome (Suc-LLVY-AMC). The experiment is classed as biochemical. As to conditions: IC50 class, Suc-LLVY-AMC substrate. In short, it runs like this:
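β5 activity is read as liberated AMC fluorescence (355/460 nm) after 4 h dark reaction at RT with 22.6 μM Suc-LLVY-AMC, stopped by 1 μM bortezomib. Beforehand, 1 nM human IPS and compound sat 10 min at RT in HEPES pH 7.5 buffer containing NaCl, 0.02% SDS and DTT.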

Turning to `Cc1ccc2cc1CNC(=O)C(CCc1cnccn1)NC(=O)[C@@H](NC(=O)Cc1ccc(N)cc1F)CC(=O)N1CCCC(CCO2)C1` (stereo partly drawn) [Compound 372, 2-(4-amino-2-fluorophenyl)-N-((9S,12S)-5^4-methyl-8,11,14-trioxo-9-(2-(pyrazin-2-yl)ethyl)-4-oxa-7,10-diaza-1(3,1)-piperidina-5(1,3)-benzenacyclotetradecaphane-12-yl) acetamide], the IC50 (in the experiment on HT-29 cells; in experiment [1]) was less than 100 nM in each case.
Regarding `Cc1ccc2cc1CNC(=O)C(CCc1ccccc1)NC(=O)[C@@H](NC(=O)OCc1ccccc1)CC(=O)N1CCCC(CCO2)C1` (stereo partly drawn) [Compound 503, benzyl ((12S)-9-phenethyl-5^4-methyl-8,11,14-trioxo-4-oxa-7,10-diaza-1(3,1)-piperidina-5(1,3)-benzenacyclotetradecaphane-12-yl)carbamate], the IC50 (in the experiment on HT-29 cells; in experiment [1]) was less than 100 nM throughout.
Turning to `Cc1ccc2cc1CNC(=O)C(CCc1cnc3nccnc3c1)NC(=O)[C@@H](NC(=O)OCc1ccccc1)CC(=O)N1CCCC(CCO2)C1` (stereo partly drawn) [Compound 505, benzyl ((12S)-5^4-methyl-8,11,14-trioxo-9-(2-(pyrido[2,3-b]pyrazin-7-yl)ethyl)-4-oxa-7,10-diaza-1(3,1)-piperidina-5(1,3)-benzenacyclotetradecaphane-12-yl)carbamate], the IC50 (with HT-29 cells; in experiment [1]) was less than 100 nM throughout.
For the molecule `Cc1ccc2cc1CNC(=O)C(CCc1ccc(S(=O)(=O)O)cc1)NC(=O)[C@@H](NC(=O)OCc1ccccc1)CC(=O)N1CCCC(CCO2)C1` (stereo partly drawn) [Compound 509, 4-(2-((12S)-12-(((benzyloxy)carbonyl)amino)-5^4-methyl-8,11,14-trioxo-4-oxa-7,10-diaza-1(3,1)-piperidina-5(1,3)-benzenacyclotetradecaphane-9-yl)ethyl)benzenesulfonic acid], the IC50 in the experiment with HT-29 cells is 100 to 500 nM; in experiment [1] it was less than 100 nM.
For the molecule `Cc1ccc2cc1CNC(=O)C(CCc1ccc(C3(C)COC3)cc1)NC(=O)[C@@H](NC(=O)OCc1ccccc1)CC(=O)N1CCCC(CCO2)C1` (stereo partly drawn) [Compound 510, benzyl ((12S)-5^4-methyl-9-(4-(3-methyloxetan-3-yl)phenethyl)-8,11,14-trioxo-4-oxa-7,10-diaza-1(3,1)-piperidina-5(1,3)-benzenacyclotetradecaphane-12-yl)carbamate], the IC50 (with HT-29 cells; in experiment [1]) was less than 100 nM throughout.
Take `Cc1ccc2cc1CNC(=O)C(CCc1cnc3cccnc3c1)NC(=O)[C@@H](NC(=O)OCc1ccccc1)CC(=O)N1CCCC(CCO2)C1` (stereo partly drawn) [Compound 511, benzyl ((12S)-9-(2-(1,5-naphthyridin-3-yl)ethyl)-5^4-methyl-8,11,14-trioxo-4-oxa-7,10-diaza-1(3,1)-piperidina-5(1,3)-benzenacyclotetradecaphane-12-yl)carbamate]: the IC50 (with HT-29 cells; in experiment [1]) was less than 100 nM each time.
In the case of `Cc1nc(C2NC(=O)[C@@H](NC(=O)OCc3ccccc3)CC(=O)N3CCCC(CCOc4ccc(C)c(c4)CNC2=O)C3)co1` (stereo partly drawn) [Compound 512, benzyl ((12S)-5^4-methyl-9-(2-methyloxazol-4-yl)-8,11,14-trioxo-4-oxa-7,10-diaza-1(3,1)-piperidina-5(1,3)-benzenacyclotetradecaphane-12-yl)carbamate], the IC50 (in the experiment with HT-29 cells; in experiment [1]) was less than 100 nM throughout.
For the molecule `COC(=O)N(CC1NC(=O)[C@@H](NC(=O)OCc2ccccc2)CC(=O)N2CCCC(CCOc3ccc(C)c(c3)CNC1=O)C2)c1ccccc1` (stereo partly drawn) [Compound 513, methyl (((12R)-12-(((benzyloxy)carbonyl)amino)-5^4-methyl-8,11,14-trioxo-4-oxa-7,10-diaza-1(3,1)-piperidina-5(1,3)-benzenacyclotetradecaphane-9-yl)methyl)(phenyl)carbamate], the IC50 (with HT-29 cells; in experiment [1]) was less than 100 nM in each case.
Regarding `CC(=O)N[C@H]1CC(=O)N2CCCC(CCOc3ccc(C)c(c3)CNC(=O)C(CCc3cccnc3)NC1=O)C2` (stereo partly drawn) [Compound 549, N-((12S)-5^4-methyl-8,11,14-trioxo-9-(2-(pyridin-3-yl)ethyl)-4-oxa-7,10-diaza-1(3,1)-piperidina-5(1,3)-benzenacyclotetradecaphane-12-yl)acetamide], the IC50 (in the experiment on HT-29 cells; in experiment [1]) was less than 100 nM throughout.
For the molecule `CC(=O)N[C@H]1CC(=O)N2CCCC(CCOc3ccc(C)c(c3)CNC(=O)C(CCc3ccncc3)NC1=O)C2` (stereo partly drawn) [Compound 551, N-((12S)-5^4-methyl-8,11,14-trioxo-9-(2-(pyridin-4-yl)ethyl)-4-oxa-7,10-diaza-1(3,1)-piperidina-5(1,3)-benzenacyclotetradecaphane-12-yl)acetamide], the IC50 (in the experiment on HT-29 cells; in experiment [1]) was less than 100 nM throughout.
On to `CC(=O)N[C@H]1CC(=O)N2CCCC(CCOc3ccc(C)c(c3)CNC(=O)C(c3cnn(C)c3)NC1=O)C2` (stereo partly drawn) [Compound 552, N-((12S)-5^4-methyl-9-(1-methyl-1H-pyrazol-4-yl)-8,11,14-trioxo-4-oxa-7,10-diaza-1(3,1)-piperidina-5(1,3)-benzenacyclotetradecaphane-12-yl)acetamide], for which the IC50 (with HT-29 cells; in experiment [1]) was less than 100 nM in each case.
Consider `CC(=O)N[C@H]1CC(=O)N2CCCC(CCOc3ccc(C)c(c3)CNC(=O)C(c3coc(C)n3)NC1=O)C2` (stereo partly drawn) [Compound 553, N-((12S)-5^4-methyl-9-(2-methyloxazol-4-yl)-8,11,14-trioxo-4-oxa-7,10-diaza-1(3,1)-piperidina-5(1,3)-benzenacyclotetradecaphane-12-yl)acetamide], for which the IC50 (in the experiment with HT-29 cells; in experiment [1]) was less than 100 nM each time.
`CC(=O)N[C@H]1CC(=O)N2CCCC(CCOc3ccc(C)c(c3)CNC(=O)C(c3ccc4ncccc4c3)NC1=O)C2` (stereo partly drawn) [Compound 554, N-((12S)-5^4-methyl-8,11,14-trioxo-9-(quinolin-6-yl)-4-oxa-7,10-diaza-1(3,1)-piperidina-5(1,3)-benzenacyclotetradecaphane-12-yl)acetamide]: the IC50 (in the experiment with HT-29 cells; in experiment [1]) was less than 100 nM throughout.
On to `CC(=O)N[C@H]1CC(=O)N2CCCC(CCOc3ccc(C)c(c3)CNC(=O)C(Cn3c(=O)oc4ccccc43)NC1=O)C2` (stereo partly drawn) [Compound 555, N-((12S)-5^4-methyl-8,11,14-trioxo-9-((2-oxobenzo[d]oxazol-3(2H)-yl)methyl)-4-oxa-7,10-diaza-1(3,1)-piperidina-5(1,3)-benzenacyclotetradecaphane-12-yl)acetamide], for which the IC50 (in the experiment with HT-29 cells; in experiment [1]) was less than 100 nM each time.
`CC(=O)N[C@H]1CC(=O)N2CCCC(CCOc3ccc(C)c(c3)CNC(=O)C(c3cc(C)sn3)NC1=O)C2` (stereo partly drawn) [Compound 556, N-((12S)-5^4-methyl-9-(5-methylisothiazol-3-yl)-8,11,14-trioxo-4-oxa-7,10-diaza-1(3,1)-piperidina-5(1,3)-benzenacyclotetradecaphane-12-yl)acetamide]: the IC50 (with HT-29 cells; in experiment [1]) was less than 100 nM throughout.
On to `CC(=O)N[C@H]1CC(=O)N2CCCC(CCOc3ccc(C)c(c3)CNC(=O)C(c3cn(C)cn3)NC1=O)C2` (stereo partly drawn) [Compound 557, N-((12S)-5^4-methyl-9-(1-methyl-1H-imidazol-4-yl)-8,11,14-trioxo-4-oxa-7,10-diaza-1(3,1)-piperidina-5(1,3)-benzenacyclotetradecaphane-12-yl)acetamide], for which the IC50 was 100 to 500 nM in the experiment on HT-29 cells and less than 100 nM in experiment [1].
With `CC(=O)N[C@H]1CC(=O)N2CCCC(CCOc3ccc(C)c(c3)CNC(=O)C(Cc3ccccc3)NC1=O)C2` (stereo partly drawn) [Compound 558, N-((12S)-9-benzyl-5^4-methyl-8,11,14-trioxo-4-oxa-7,10-diaza-1(3,1)-piperidina-5(1,3)-benzenacyclotetradecaphane-12-yl)acetamide], the IC50 (in the experiment on HT-29 cells; in experiment [1]) was less than 100 nM each time.
For the molecule `CC(=O)N[C@H]1CC(=O)N2CCCC(CCOc3ccc(C)c(c3)CNC(=O)C(c3cnn(-c4ccccc4)c3)NC1=O)C2` (stereo partly drawn) [Compound 559, N-((12S)-5^4-methyl-8,11,14-trioxo-9-(1-phenyl-1H-pyrazol-4-yl)-4-oxa-7,10-diaza-1(3,1)-piperidina-5(1,3)-benzenacyclotetradecaphane-12-yl)acetamide], the IC50 (with HT-29 cells; in experiment [1]) was less than 100 nM each time.
For the molecule `COC(=O)N(CC1NC(=O)[C@@H](NC(C)=O)CC(=O)N2CCCC(CCOc3ccc(C)c(c3)CNC1=O)C2)c1ccccc1` (stereo partly drawn) [Compound 560, methyl (((12S)-12-acetamido-5^4-methyl-8,11,14-trioxo-4-oxa-7,10-diaza-1(3,1)-piperidina-5(1,3)-benzenacyclotetradecaphane-9-yl)methyl)(phenyl)carbamate], the IC50 (with HT-29 cells; in experiment [1]) was less than 100 nM each time.
As for `CC(=O)N[C@H]1CC(=O)N2CCCC(CCOc3ccc(C)c(c3)CNC(=O)C(c3cc(C)n(C)n3)NC1=O)C2` (stereo partly drawn) [Compound 561, N-((12S)-9-(1,5-dimethyl-1H-pyrazol-3-yl)-5^4-methyl-8,11,14-trioxo-4-oxa-7,10-diaza-1(3,1)-piperidina-5(1,3)-benzenacyclotetradecaphane-12-yl)acetamide], the IC50 (in the experiment with HT-29 cells; in experiment [1]) was less than 100 nM in each case.
On to `CC(=O)N[C@H]1CC(=O)N2CCCC(CCOc3ccc(C)c(c3)CNC(=O)C(c3cn[nH]c3)NC1=O)C2` (stereo partly drawn) [Compound 562, N-((12S)-5^4-methyl-8,11,14-trioxo-9-(1H-pyrazol-4-yl)-4-oxa-7,10-diaza-1(3,1)-piperidina-5(1,3)-benzenacyclotetradecaphane-12-yl)acetamide], for which the values for the IC50 (in the experiment on HT-29 cells; in experiment [1]) were 100 to 500 nM and less than 100 nM, respectively.
